Reference: ChEMBL document CHEMBL4359907, “Scalable and cost-effective tosylation-mediated synthesis of antifungal and fungal diagnostic 6″-Modified amphiphilic kanamycins” (Eur J Med Chem, 2019)

Experiments:
[1] = test system: Staphylococcus aureus; experiment: Antibacterial activity against methicillin-resistant Staphylococcus aureus ATCC 43300 incubated for 18 hrs by two fold dilution method; format: functional; settings: ATCC 43300, 18 h
[2] = test system: Diutina rugosa; experiment: Antifungal activity against Candida rugosa 95-967 incubated for 24 to 36 hrs by two fold dilution method; format: functional
[3] = test system: Staphylococcus aureus; experiment: Antibacterial activity against methicillin-resistant Staphylococcus aureus ATCC 33591 incubated for 18 hrs by two fold dilution method; format: functional; settings: ATCC 33591, 18 h
[4] = test system: Cryptococcus neoformans; experiment: Antifungal activity against Cryptococcus neoformans H99 incubated for 24 to 36 hrs by two fold dilution method; format: functional
[5] = test system: Candida albicans; experiment: Antifungal activity against Candida albicans B-311 incubated for 24 to 36 hrs by two fold dilution method; format: functional
[6] = test system: Candida albicans; experiment: Antifungal activity against azole-susceptible Candida albicans MYA2876 incubated for 24 to 36 hrs by two fold dilution method; format: functional
[7] = test system: Candida albicans; experiment: Antifungal activity against azole-resistant Candida albicans 64124 incubated for 24 to 36 hrs by two fold dilution method; format: functional
[8] = test system: Rhodotorula mucilaginosa; experiment: Antifungal activity against Rhodotorula pilimanae ATCC 26423 incubated for 24 to 36 hrs by two fold dilution method; format: functional
[9] = test system: Cryptococcus neoformans; experiment: Antifungal activity against Cryptococcus neoformans VR-54 incubated for 24 to 36 hrs by two fold dilution method; format: functional
[10] = test system: Candida tropicalis; experiment: Antifungal activity against Candida tropicalis 95-41 incubated for 24 to 36 hrs by two fold dilution method; format: functional
[11] = test system: Candida parapsilosis; experiment: Antifungal activity against azole-resistant Candida parapsilosis Cas08-0490 incubated for 24 to 36 hrs by two fold dilution method; format: functional; settings: Lodderomyces parapsilosis
[12] = test system: Escherichia coli; experiment: Antibacterial activity against Escherichia coli ATCC 25922 incubated for 18 hrs by two fold dilution method; format: functional; settings: ATCC 25922, 18 h
[13] = test system: HeLa; experiment: Cytotoxicity against human HeLa cells assessed as reduction in cell viability incubated for 24 hrs by MTT assay; format: cell-based
[14] = test system: Staphylococcus aureus; experiment: Antibacterial activity against Staphylococcus aureus ATCC 25923 incubated for 18 hrs by two fold dilution method; format: functional; settings: ATCC 25923, 18 h
[15] = test system: Fusarium graminearum; experiment: Antifungal activity against Fusarium graminearum B4-5A incubated for 24 to 36 hrs by two fold dilution method; format: functional

| Structure (SMILES) | MIC [1] [mg/L] | MIC [2] [mg/L] | MIC [3] [mg/L] | MIC [4] [mg/L] | MIC [5] [mg/L] | MIC [6] [mg/L] | MIC [7] [mg/L] | MIC [8] [mg/L] | MIC [9] [mg/L] | MIC [10] [mg/L] | MIC [11] [mg/L] | MIC [12] [mg/L] | IC50 [13] [mg/L] | MIC [14] [mg/L] | MIC [15] [mg/L] |
| --- | --- | --- | --- | --- | --- | --- | --- | --- | --- | --- | --- | --- | --- | --- | --- |
| CCCCCCCCCCCCSC[C@H]1O[C@H](O[C@@H]2[C@@H](O)[C@H](O[C@H]3O[C@H](CN)[C@@H](O)[C@H](O)[C@H]3O)[C@@H](N)C[C@H]2N)[C@H](O)[C@@H](N)[C@@H]1O.Cl.Cl.Cl.Cl | 16 | 16 | 32 | 2 | 32 | 16 | 16 | 2 | 2 | 32 | 32 | 16 | > 100 | 32 | 4 |
| CCCCCCCCCCCCCCSC[C@H]1O[C@H](O[C@@H]2[C@@H](O)[C@H](O[C@H]3O[C@H](CN)[C@@H](O)[C@H](O)[C@H]3O)[C@@H](N)C[C@H]2N)[C@H](O)[C@@H](N)[C@@H]1O.Cl.Cl.Cl.Cl | 16 | 8 | 16 | 2 | 8 | 4 | 4 | 2 | 2 | 4 | 16 | 16 | 52.9 | 16 | 2 |
| CCCCCCCCCCNC[C@H]1O[C@H](O[C@@H]2[C@@H](O)[C@H](O[C@H]3O[C@H](CN)[C@@H](O)[C@H](O)[C@H]3O)[C@@H](N)C[C@H]2N)[C@H](O)[C@@H](N)[C@@H]1O.Cl.Cl.Cl.Cl.Cl | 64 | 256 | 256 | 8 | 256 | > 256 | 128 | 8 | 8 | > 256 | 256 | 64 | – | 128 | 32 |
| CCCCCCCCCCCCCCCCNC[C@H]1O[C@H](O[C@@H]2[C@@H](O)[C@H](O[C@H]3O[C@H](CN)[C@@H](O)[C@H](O)[C@H]3O)[C@@H](N)C[C@H]2N)[C@H](O)[C@@H](N)[C@@H]1O.Cl.Cl.Cl.Cl.Cl | 32 | 4 | 32 | 2 | 4 | 8 | 4 | 2 | 2 | 4 | 4 | 32 | 41.6 | 16 | 2 |
| CCCCCCCCCCSC[C@H]1O[C@H](O[C@@H]2[C@@H](O)[C@H](O[C@H]3O[C@H](CN)[C@@H](O)[C@H](O)[C@H]3O)[C@@H](N)C[C@H]2N)[C@H](O)[C@@H](N)[C@@H]1O.Cl.Cl.Cl.Cl | 32 | 64 | 64 | 8 | 128 | 64 | 64 | 4 | 8 | 128 | 128 | 64 | – | 64 | 32 |
| CCCCCCCCNC[C@H]1O[C@H](O[C@@H]2[C@@H](O)[C@H](O[C@H]3O[C@H](CN)[C@@H](O)[C@H](O)[C@H]3O)[C@@H](N)C[C@H]2N)[C@H](O)[C@@H](N)[C@@H]1O.Cl.Cl.Cl.Cl.Cl | 128 | > 256 | > 256 | 16 | > 256 | > 256 | 256 | 16 | 16 | > 256 | > 256 | 256 | – | 128 | 32 |
| CCCCCCSC[C@H]1O[C@H](O[C@@H]2[C@@H](O)[C@H](O[C@H]3O[C@H](CN)[C@@H](O)[C@H](O)[C@H]3O)[C@@H](N)C[C@H]2N)[C@H](O)[C@@H](N)[C@@H]1O.Cl.Cl.Cl.Cl | > 256 | > 256 | > 256 | 128 | > 256 | > 256 | > 256 | 32 | 64 | > 256 | > 256 | 128 | – | 256 | 256 |
